Peptide text beside a SMILES is read from it. * marks the point of attachment. Cbz = O=C(OCc1ccccc1)*
Legend:
[1] = system: IRE1α (XBP1s, pIRE1α) in BMDCs; test: IRE1α activation in BMDCs (immunoblot); type: cell-based, mouse; conditions: in words; for IRE1α activation: GM-CSF + IL-4 BMDCs, immunoblot for XBP1s/pIRE1α
Procedure: Figure 1. Antigen pulsing of BMDCs activates IRE1α. (A) BMDCs were pulsed with ovalbumin (starting at 62.5 μg/ml and sequentially doubled) and analyzed by immunoblot (IB) for the indicated markers. (B) BMDCs were pulsed with ovalbumin (starting at 500 μg/ml and sequentially halved) or […] (1 μM), or stimulated with tunicamycin (1 μg/ml) or poly-I:C (25 μg/ml) for 4 h, and analyzed by IB. (C) BMDCs were pulsed with ovalbumin (500 μg/ml) for indicated time points and analyzed by IB. (D) BMDCs were pulsed for 4 h with ovalbumin or lysates derived from the indicated cell lines (500 μg/ml protein) and analyzed by IB. […] (F) Upon removal from bone marrow, total bone marrow cells were transfected with non-targeting control (NTC) or TAP1-targeting gRNAs, along with CRISPR/Cas9 delivery constructs. Cells were then subjected to standard BMDC-differentiation protocol, pulsed with ovalbumin (500 μg/ml) for 4 h, and analyzed by IB. All IB images are representative of at least two similar experiments, and molecular weights represent kD. Source data are available for this figure: SourceData F1.
For purification and differentiation of BMDCs, the femur and tibia bones of C57BL/6 mice were flushed with sterile PBS, and bone marrow cells were then cultured in RPMI1640 media as described above and further supplemented with […] β2-mercaptoethanol (Sigma-Aldrich), 20 ng/ml GM-CSF (BioLegend), and 10 ng/ml IL-4 (BioLegend) for 9 d, with media being replenished every 3 d. Where indicated, Flt3L-BMDCs were similarly generated using media supplemented with 200 ng/ml recombinant mouse Flt3L (PeproTech; [Brasel et al., 2000]). After 9 d of culture, BMDCs were routinely verified to be >90% CD11c^+ MHC-II^high by flow cytometry analysis.
Thapsigargin (Sigma-Aldrich) was used at 100 nM, tunicamycin (Sigma-Aldrich) was used at 5 μg/ml, MG132 (Sigma-Aldrich) was used at 5 μM, Amiloride (Sigma-Aldrich) was used at 10 μM, actinomycin D (Sigma-Aldrich) was used at 4 μg/ml, LPS (Sigma-Aldrich) was used at 10 μg/ml, and poly-I:C (Sigma-Aldrich) was used at 25 μg/ml. Ovalbumin (Sigma-Aldrich), EF-OVA (EndoFit; InvivoGen), […] peptide (Sigma-Aldrich), and human CD4-Fc fusion protein (generated in-house at Genentech) were dissolved in PBS prior to pulsing and used at indicated concentrations.
Cells were lysed in PBS solution supplemented with 1X radioimmunoprecipitation assay buffer (Millipore) and 2X Halt protease-phosphatase inhibitor cocktail (Thermo Fisher Scientific). Upon clearance, samples were analyzed by SDS-PAGE, electrotransferred to nitrocellulose membranes (Invitrogen), and blocked by 5% powdered milk in PBSt (PBS supplemented with 0.1% tween) solution. Development was conducted with ECL reagent (Thermo Fisher Scientific) and imaging was performed with the ChemiDoc ZRS+ imager (Bio-Rad). Antibodies used for Western blot analysis include IRE1α (3294, rabbit; Cell Signaling Technology), β-actin (5125, rabbit; Cell Signaling), GAPDH (97166, mouse; Cell Signaling), ATF6 (66563-1-Ig, mouse; ProteinTech), TAP1 (12341, rabbit; Cell Signaling), CHOP (2895, mouse; Cell Signaling), ATF4 (11815, rabbit; Cell Signaling), ovalbumin (P1-196, rabbit; Thermo Fisher Scientific), human Fc (ab977225, rabbit; Abcam), Myc tag (2272, rabbit; Cell Signaling), and biotin (5597, rabbit; Cell Signaling). IRE1α lumenal domain (mouse), XBP1s (rabbit), and pIRE1α (rabbit) antibodies were generated at Genentech. Secondary antibodies used were for mouse (715-035-150; The Jackson Laboratory) and rabbit (711-035-152; The Jackson Laboratory).

heat-denatured ovalbumin = heat-denatured ovalbumin (UniProt P01012); test: ELISA; native or heat-denatured ovalbumin coated on a 96-well plate, blocked with 1% BSA; IRE1α LD-Fc (10 μg/ml) in PBS with 20 mM Hepes, 100 mM KOAc, 0.2% tween-20, 2 h, room temperature; detection with HRP-conjugated anti-human Fc antibody
[2] = system: IRE1α in MyD88 KO Flt3L-derived BMDCs; test: IRE1α activation in MyD88 KO Flt3L-derived BMDCs (immunoblot); type: cell-based, mouse; conditions: ovalbumin 500 μg/ml or LPS 10 μg/ml, 4 h
Procedure: (§1) Figure S1. Antigen pulsing of BMDCs activates IRE1α. (A) BMDCs were treated with MG132 (5 μM) or ovalbumin (500 μg/ml) for indicated time points and analyzed by IB. (B) BMDCs were pulsed with ovalbumin (500 μg/ml) and G9668 (3 μM) for indicated time periods and analyzed by IB. (C) Molecular structure, potency, and kinase selectivity of G9668. (D) Schematic representation of G9668 interaction with 220 kinases at 1 μM. Size and color of circles represent interaction strength. Analysis was conducted by KinomeScan. (E) BMDCs were pulsed for 4 h with APC-tagged ovalbumin or soluble CD4-Fc protein (500 μg/ml) with amiloride (10 μM); uptake of protein was assayed by flow cytometry (n = 3). (F) WT or MyD88 KO Flt3L-derived BMDCs were pulsed with ovalbumin (500 μg/ml) or soluble CD4-Fc protein (500 μg/ml), or treated with LPS (10 μg/ml) for 4 h and analyzed by IB. (G) MEFs and BMDCs were pulsed with ovalbumin or treated with Tg (100 nM) for 4 h and analyzed by IB. Images in A, B, F, and G represent at least two similar experiments, and molecular weights represent kD; E bar graphs represent mean ± SD from three independent biological repeats. Analysis for E was performed using unpaired, two-tailed t test; *, P ≤ 0.05; **, P ≤ 0.01. Source data are available for this figure: SourceData FS1. […]

[3] = system: PERK (ATF4, CHOP) in BMDCs; test: PERK activation in BMDCs (immunoblot of ATF4 and CHOP); type: cell-based, mouse; conditions: MG132 5 μM or ovalbumin 500 μg/ml, in words
Procedure: as §1

ATF6 in BMDCs = test: ATF6 activation in BMDCs (immunoblot, proteolytic processing); type: cell-based, mouse; conditions: MG132 5 μM or ovalbumin 500 μg/ml, in words
Procedure: as §1

IRE1α LD-Fc [4] = test: Co-immunoprecipitation of ovalbumin with IRE1α LD-Fc; type: binding, human; conditions: LD-Fc 10 μg/ml, 2 h; ovalbumin 1-300 μg/ml; in words
Procedure: (§2) For experiments testing ovalbumin binding, a human LD-Fc was used at indicated concentrations. LD-Fc is comprised of amino acids M1-D443 of IRE1α fused C-terminally to a linker ([…]) followed by the human IgG1 hinge and Fc portion. Ovalbumin (Sigma-Aldrich) was dissolved in sterile PBS and used in native state or denatured as indicated by incubation at 95°C buffer for 10 min.
For co-immunoprecipitation experiments, IRE1α LD-Fc (10 μg/ml) and ovalbumin (indicated concentrations) were co-incubated in binding buffer (as described above) for 2 h and then immunoprecipitated with anti-IRE1α LD antibody (made in-house at Genentech), conjugated to sepharose beads, overnight at 4°C. Beads were subsequently washed four times with lysis buffer and boiled in SDS sample buffer for 10 min. Samples were then analyzed by SDS-PAGE followed by immunoblot.

IRE1α LD-Fc [5] = test: Plate-based ovalbumin binding to IRE1α LD-Fc; design: species or system human; conditions: 2 h, room temperature
Procedure: as §2
For plate-based binding experiments, native or heat-denatured ovalbumin at indicated concentrations was bound to a flat-bottom 96-well plate (Corning Inc.) with coating buffer (BioLegend), washed with PBSt, blocked with 1% BSA in PBS, and subsequently incubated with IRE1α LD-Fc (10 μg/ml) in binding buffer composed of PBS with 20 mM Hepes, 100 mM KOAc, and 0.2% tween-20 for 2 h at room temperature. Plates were washed again with PBSt and incubated with an anti-human Fc HRP-conjugated antibody (ab977225; Abcam). Development was performed with 3,3′,5,5′-Tetramethylbenzidine solution and terminated with Stop solution (BioLegend). Readings were taken with a SpectraMax M2 spectrometer (Molecular Devices).

Molecule: polyinosinic:polycytidylic acid [poly-I:C, reference compound]
- IRE1α activation [1]: much weaker IRE1α activation than did the potent pharmacological ER-stressor tunicamycin

Molecule: IRE1α lumenal domain fused to an Fc tag (IRE1α LD-Fc) (from UniProt O75460 19-443) (Fc fusion)
- Kd (heat-denatured ovalbumin): 300 µM

Molecule: lipopolysaccharide [LPS, reference compound]
- IRE1α activation, MyD88 KO BMDCs [2]: failed to activate IRE1α

Molecule: tunicamycin [reference compound]
- IRE1α activation [1]: potent pharmacological ER-stressor

Molecule: SIINFEKL [ovalbumin-derived octapeptide, reference compound]
- IRE1α activation [1]: little effect on IRE1α activity

Molecule: N=C(N)NC(=O)c1nc(Cl)c(N)nc1N [amiloride, reference compound]
- block of antigen-induced IRE1α activation ([1]; BMDCs pulsed with antigen 500 μg/ml, G9668 3 μM or amiloride 10 μM): blocked antigen-induced IRE1α stimulation in BMDCs

Molecule: CC(C)C[C@@H](C=O)NC(=O)[C@H](CC(C)C)NC(=O)[C@H](CC(C)C)NC(=O)OCc1ccccc1 [MG132, reference compound] (Cbz-Leu-Leu-Leu-aldehyde)
- PERK activation [3]: robust activation
- IRE1α activation [1]: robust activation
- ATF6 activation (ATF6 in BMDCs): robust activation

B1: heat-denatured ovalbumin: ovalbumin denatured by incubation at 95°C for 10 min (protein)
chain: MGSIGAASMEFCFDVFKELKVHHANENIFYCPIAIMSALAMVYLGAKDSTRTQINKVVRFDKLPGFGDSIEAQCGTSVNVHSSLRDILNQITKPNDVYSFSLASRLYAEERYPILPEYLQCVKELYRGGLEPINFQTAADQARELINSWVESQTNGIIRNVLQPSSVDSQTAMVLVNAIVFKGLWEKAFKDEDTQAMPFRVTEQESKPVQMMYQIGLFRVASMASEKMKILELPFASGTMSMLVLLPDEVSGLEQLESIINFEKLTEWTSSNVMEERKIKVYLPRMKMEEKYNLTSVLMAMGITDVFSSSANLSGISSAESLKISQAVHAAHAEINEAGREVVGSAEAGVDAASVSEEFRADHPFLFCIKHIATNAVLFFGRCVSP
- co-immunoprecipitation with IRE1α LD-Fc (IRE1α LD-Fc [4]): concentration-dependent association
- binding to immobilized IRE1α LD-Fc (IRE1α LD-Fc [5]; LD-Fc 10 μg/ml, in words): specific and saturable binding
- Kd (IRE1α LD-Fc [5]; plate-based, IRE1α LD-Fc 10 μg/ml, estimated, read-out: equilibrium dissociation constant (Kd)): ~300 µM

Source: article PMC9036094, “Antigen-derived peptides engage the ER stress sensor IRE1α to curb dendritic cell cross-presentation” (The Journal of Cell Biology, 2022)
